Experimental data from patent US9796711B2, “Substituted pyrazolo[3,4-b]pyridin-6-carboxylic acids and method of use” (AbbVie S.àr.l., priority 2015, dated 2017).

Tests used:
ΔF508-CFTR [1] = biological target: T1, ΔF508-CFTR (Homo sapiens, UniProt P13569, DEL508-508); assay: CFTR cell surface levels using HRP-tagged ΔF508-CFTR expressing CFBE cells, in the presence of a co-corrector; format: cell-based; conditions: HRP-tagged ΔF508-CFTR expressing CFBE cells, in the presence of 3 μM co-corrector; for EC50: read-out: EC50
T1 construct: host or cells: CFBE41o-, doxycycline-inducible
Outline: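 Cells were seeded with 0.5 μg/mL doxycycline and held 68 h at 37 °C. Test compounds plus 3 μM co-corrector (final 0.1% DMSO) were then added for 20 h at 33 °C. Washed cells received HRP substrate, and luminescence was normalized between DMSO and 3 μM co-corrector controls.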

ΔF508-CFTR [2] = biological target: T1, ΔF508-CFTR; assay: CFTR cell surface levels using HRP-tagged ΔF508-CFTR expressing CFBE cells, intrinsic corrector capacity; format: cell-based; conditions: HRP-tagged ΔF508-CFTR expressing CFBE cells, intrinsic corrector capacity (no co-corrector), 33° C., 20 hours; for EC50: read-out: EC50
Outline: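 Here the cells express ΔF508-CFTR with horseradish peroxidase inserted in extracellular loop 4, so only rescued channel at the surface gives luminescent signal. Compounds act on their own, 20 h at the reduced temperature of 33 °C; values are percent activity relative to DMSO and a 3 μM corrector.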

T1 sequence (P13569 with tags, fused parts or gaps DEL508-508): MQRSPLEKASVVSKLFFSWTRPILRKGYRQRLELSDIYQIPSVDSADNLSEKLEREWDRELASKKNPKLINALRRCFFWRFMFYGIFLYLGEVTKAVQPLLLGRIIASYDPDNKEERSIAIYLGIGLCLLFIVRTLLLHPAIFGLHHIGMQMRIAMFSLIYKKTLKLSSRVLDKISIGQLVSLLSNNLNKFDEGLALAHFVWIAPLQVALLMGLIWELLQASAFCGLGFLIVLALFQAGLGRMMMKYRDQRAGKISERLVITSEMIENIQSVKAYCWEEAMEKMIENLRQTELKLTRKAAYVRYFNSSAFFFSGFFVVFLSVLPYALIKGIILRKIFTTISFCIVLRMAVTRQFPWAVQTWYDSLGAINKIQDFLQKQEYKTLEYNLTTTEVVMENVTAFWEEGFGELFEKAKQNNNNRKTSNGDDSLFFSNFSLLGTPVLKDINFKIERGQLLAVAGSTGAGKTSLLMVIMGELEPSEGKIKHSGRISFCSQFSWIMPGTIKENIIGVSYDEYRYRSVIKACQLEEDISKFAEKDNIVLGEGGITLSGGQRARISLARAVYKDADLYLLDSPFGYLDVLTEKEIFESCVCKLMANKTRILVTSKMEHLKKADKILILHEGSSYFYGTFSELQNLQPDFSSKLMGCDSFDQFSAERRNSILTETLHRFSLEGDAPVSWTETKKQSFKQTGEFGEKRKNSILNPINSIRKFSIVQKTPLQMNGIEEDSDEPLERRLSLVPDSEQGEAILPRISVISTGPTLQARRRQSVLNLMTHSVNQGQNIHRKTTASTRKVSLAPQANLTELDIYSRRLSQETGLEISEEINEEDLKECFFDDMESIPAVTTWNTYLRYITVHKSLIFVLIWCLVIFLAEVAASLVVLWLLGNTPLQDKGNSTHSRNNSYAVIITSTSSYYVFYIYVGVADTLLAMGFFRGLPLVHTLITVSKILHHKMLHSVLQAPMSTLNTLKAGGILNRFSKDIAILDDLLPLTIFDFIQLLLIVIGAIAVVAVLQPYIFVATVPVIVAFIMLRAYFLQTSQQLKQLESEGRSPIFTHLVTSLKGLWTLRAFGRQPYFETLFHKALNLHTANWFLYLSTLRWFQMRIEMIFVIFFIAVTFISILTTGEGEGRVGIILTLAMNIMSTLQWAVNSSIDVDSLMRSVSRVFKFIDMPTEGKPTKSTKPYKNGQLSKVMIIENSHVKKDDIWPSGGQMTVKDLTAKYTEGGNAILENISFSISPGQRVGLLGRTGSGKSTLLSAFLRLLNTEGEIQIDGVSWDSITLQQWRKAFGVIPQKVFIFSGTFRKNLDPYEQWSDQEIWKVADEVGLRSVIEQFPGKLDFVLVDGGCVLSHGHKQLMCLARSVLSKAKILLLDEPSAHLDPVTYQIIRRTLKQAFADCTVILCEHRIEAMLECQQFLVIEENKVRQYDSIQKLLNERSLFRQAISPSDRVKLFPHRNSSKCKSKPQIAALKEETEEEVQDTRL

Row | SMILES | % Activation (ΔF508-CFTR [1]) [%] | EC50 (ΔF508-CFTR [1]) [nM] | % Activation (ΔF508-CFTR [2]) [%] | EC50 (ΔF508-CFTR [2]) [nM]
1 | COCC1(F)CCN(c2cc(C(=O)O)nc3c2c(C2CCC2)nn3-c2ccccc2)C1 (stereo not drawn) [compound 508, 3-cyclobutyl-4-[3-fluoro-3-(methoxymethyl)pyrrolidin-1-yl]-1-phenyl-1H-pyrazolo[3,4-b]pyridine-6-carboxylic acid] | 271.8 | 451 | 104.6 | 1110
2 | O=C(O)c1cc(N2CC[C@H](O)[C@H](F)C2)c2c(C3CCC3)nn(-c3ccccc3)c2n1 [compound 509, 3-cyclobutyl-4-[(3R,4S)-3-fluoro-4-hydroxypiperidin-1-yl]-1-phenyl-1H-pyrazolo[3,4-b]pyridine-6-carboxylic acid] | 344.6 | 1670 | 123.6 | 1240
3 | CCOCC1(F)CCN(c2cc(C(=O)O)nc3c2c(C2CCC2)nn3-c2ccccc2)C1 (stereo not drawn) [compound 510, 3-cyclobutyl-4-[3-(ethoxymethyl)-3-fluoropyrrolidin-1-yl]-1-phenyl-1H-pyrazolo[3,4-b]pyridine-6-carboxylic acid] | 313.2 | 397 | 99.8 | 1110
4 | CC1(CO)CN(c2cc(C(=O)O)nc3c2c(C2CCC2)nn3-c2ccccc2)C1 [compound 511, 3-cyclobutyl-4-[3-(hydroxymethyl)-3-methylazetidin-1-yl]-1-phenyl-1H-pyrazolo[3,4-b]pyridine-6-carboxylic acid] | 214.6 | 1030 | 56.48 | 3340
5 | CO[C@H]1CCN(c2cc(C(=O)O)nc3c2c(C2CCC2)nn3-c2ccccc2)C1 [compound 512, 3-cyclobutyl-4-[(3S)-3-methoxypyrrolidin-1-yl]-1-phenyl-1H-pyrazolo[3,4-b]pyridine-6-carboxylic acid] | 286.4 | 1420 | 103 | 1170
6 | O=C(O)c1cc(N2CC(OCC(F)F)C2)c2c(C3CCC3)nn(-c3ccccc3)c2n1 [compound 513, 3-cyclobutyl-4-[3-(2,2-difluoroethoxy)azetidin-1-yl]-1-phenyl-1H-pyrazolo[3,4-b]pyridine-6-carboxylic acid] | 349.6 | 472 | 141.7 | 371
7 | O=C(O)c1cc(N2C[C@@H](F)C[C@@H]2CO)c2c(C3CCC3)nn(-c3ccccc3)c2n1 [compound 514, 3-cyclobutyl-4-[(2R,4S)-4-fluoro-2-(hydroxymethyl)pyrrolidin-1-yl]-1-phenyl-1H-pyrazolo[3,4-b]pyridine-6-carboxylic acid] | 178.2 | 3330 | 37.34 | 3340
8 | O=C(O)c1cc(N2CCN3C[C@@H](F)C[C@H]3C2)c2c(C3CCC3)nn(-c3ccccc3)c2n1 [compound 515, 3-cyclobutyl-4-[(7S,8aS)-7-fluorohexahydropyrrolo[1,2-a]pyrazin-2(11/)-yl]-1-phenyl-1H-pyrazolo[3,4-b]pyridine-6-carboxylic acid] | 173.5 | 3330 | 15.59 | > 10000
9 | CN1C(=O)CO[C@H]2CN(c3cc(C(=O)O)nc4c3c(C3CCC3)nn4-c3ccccc3)C[C@@H]21 [compound 516, 3-cyclobutyl-4-[(4aS,7aS)-4-methyl-3-oxohexahydropyrrolo[3,4-b][1,4]oxazin-6 (2H)-yl]-1-phenyl-1H-pyrazolo[3,4-b]pyridine-6-carboxylic acid] | 275.5 | 723 | 123.4 | 1110
10 | O=C(O)c1cc(N2CCC(F)(CO)CC2)c2c(C3CCC3)nn(-c3ccccc3)c2n1 [compound 517, 3-cyclobutyl-4-[4-fluoro-4-(hydroxymethyl)piperidin-1-yl]-1-phenyl-1H-pyrazolo[3,4-b]pyridine-6-carboxylic acid] | 303.2 | 575 | 82.63 | 646
11 | O=C(O)c1cc(N2CCC3(CCCO3)C2)c2c(C3CCC3)nn(-c3ccccc3)c2n1 (stereo not drawn) [compound 518, 3-cyclobutyl-4-(1-oxa-7-azaspiro[4.4]nonan-7-yl)-1-phenyl-1H-pyrazolo[3,4-b]pyridine-6-carboxylic acid] | 237 | 531 | 62.95 | 371
12 | CS(=O)(=O)NC1CCN(c2cc(C(=O)O)nc3c2c(C2CCC2)nn3-c2ccccc2)CC1 [compound 519, 3-cyclobutyl-4-{4-[(methanesulfonyl)amino]piperidin-1-yl}-1-phenyl-1H-pyrazolo[3,4-b]pyridine-6-carboxylic acid] | 340.6 | 3330 | 149.3 | 3340
13 | O=C(O)c1cc(N2CCC(C(F)CO)CC2)c2c(C3CCC3)nn(-c3ccccc3)c2n1 (stereo not drawn) [compound 520, 3-cyclobutyl-4-[4-(1-fluoro-2-hydroxyethyl)piperidin-1-yl]-1-phenyl-1H-pyrazolo[3,4-b]pyridine-6-carboxylic acid] | 450.25 | 241 | 213.9 | 583
14 | COCC1(C)CN(c2cc(C(=O)O)nc3c2c(C2CCC2)nn3-c2ccccc2)C1 [compound 521, 3-cyclobutyl-4-[3-(methoxymethyl)-3-methylazetidin-1-yl]-1-phenyl-1H-pyrazolo[3,4-b]pyridine-6-carboxylic acid] | 216.55 | 290 | 58.57 | 488
15 | CO[C@@H]1CCN(c2cc(C(=O)O)nc3c2c(C2CCC2)nn3-c2ccccc2)C1 [compound 522, 3-cyclobutyl-4-[(3R)-3-methoxypyrrolidin-1-yl]-1-phenyl-1H-pyrazolo[3,4-b]pyridine-6-carboxylic acid] | 294.1 | 1080 | 114 | 479
16 | CS(=O)(=O)N1CCN(c2cc(C(=O)O)nc3c2c(C2CCC2)nn3-c2ccccc2)CC1 [compound 523, 3-cyclobutyl-4-[4-(methanesulfonyl)piperazin-1-yl]-1-phenyl-1H-pyrazolo[3,4-b]pyridine-6-carboxylic acid] | 320.1 | 630 | 136.2 | 2850
17 | COCCN(CCOC)c1ccc(-c2cc(C(=O)O)nc3c2c(C(C)C)nn3-c2ccnc(N3CCOCC3)c2)cn1 [compound 524, 4-{6-[bis(2-methoxyethyl)amino]pyridin-3-yl}-1-[2-(morpholin-4-yl)pyridin-4-yl]-3-(propan-2-yl)-1H-pyrazolo[3,4-b]pyridine-6-carboxylic acid] | 354.25 | 261 | 134.7 | 454
18 | COCC1CCN(c2cc(C(=O)O)nc3c2c(C(C)C)nn3-c2ccnc(N3CCOCC3)c2)CC1 [compound 525, 4-[4-(methoxymethyl)piperidin-1-yl]-1-[2-(morpholin-4-yl)pyridin-4-yl]-3-(propan-2-yl)-1H-pyrazolo[3,4-b]pyridine-6-carboxylic acid] | 311.3 | 936 | 232.2 | 416
